From PubChem BioAssay (NCI)
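A five-concentration, 48-hour dose response in 96-well plates underlies each endpoint, interpolated linearly between surrounding concentrations. Definition used: TGI = concentration required for complete inhibition of growth.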

Assays:
Assay in all cases: NCI tumour cell line growth inhibition, 48 h
786-0 renal = system: 786-0 renal
A498 renal = system: A498 renal
A549 NSCLC = system: A549 NSCLC
ACHN renal = system: ACHN renal
CAKI-1 renal = system: CAKI-1 renal
CCRF-CEM leukemia = system: CCRF-CEM leukemia
COLO 205 colon = system: COLO 205 colon
DLD-1 colon = system: DLD-1 colon
DMS 114 small cell lung = system: DMS 114 small cell lung
DMS 273 small cell lung = system: DMS 273 small cell lung
EKVX NSCLC = system: EKVX NSCLC
HCC-2998 colon = system: HCC-2998 colon
HCT-116 colon = system: HCT-116 colon
HCT-15 colon = system: HCT-15 colon
HL-60(TB) leukemia = system: HL-60(TB) leukemia
HOP-62 NSCLC = system: HOP-62 NSCLC
IGROV1 ovarian = system: IGROV1 ovarian
K-562 leukemia = system: K-562 leukemia
KM12 colon = system: KM12 colon
KM20L2 colon = system: KM20L2 colon
LOX IMVI melanoma = system: LOX IMVI melanoma
LXFL 529 NSCLC = system: LXFL 529 NSCLC
M14 melanoma = system: M14 melanoma
M19-MEL melanoma = system: M19-MEL melanoma
MALME-3M melanoma = system: MALME-3M melanoma
MOLT-4 leukemia = system: MOLT-4 leukemia
NCI-H226 lung = system: NCI-H226 lung
NCI-H460 lung = system: NCI-H460 lung
NCI-H522 lung = system: NCI-H522 lung
OVCAR-3 ovarian = system: OVCAR-3 ovarian
OVCAR-4 ovarian = system: OVCAR-4 ovarian
OVCAR-5 ovarian = system: OVCAR-5 ovarian
OVCAR-8 ovarian = system: OVCAR-8 ovarian
RXF 393 renal = system: RXF 393 renal
RXF-631 renal = system: RXF-631 renal
SF-268 CNS = system: SF-268 CNS
SF-295 CNS = system: SF-295 CNS
SF-539 CNS = system: SF-539 CNS
SK-MEL-2 melanoma = system: SK-MEL-2 melanoma
SK-MEL-5 melanoma = system: SK-MEL-5 melanoma
SK-OV-3 ovarian = system: SK-OV-3 ovarian
SN12C renal = system: SN12C renal
SNB-19 CNS = system: SNB-19 CNS
SNB-75 CNS = system: SNB-75 CNS
SNB-78 CNS = system: SNB-78 CNS
SR leukemia = system: SR leukemia
SW-620 colon = system: SW-620 colon
TK-10 renal = system: TK-10 renal
U251 CNS = system: U251 CNS
UACC-257 melanoma = system: UACC-257 melanoma
UACC-62 melanoma = system: UACC-62 melanoma
UO-31 renal = system: UO-31 renal
XF 498 CNS = system: XF 498 CNS
HOP-92 NSCLC = system: HOP-92 NSCLC
HT29 colon = system: HT29 colon
NCI-H23 lung = system: NCI-H23 lung
RPMI-8226 leukemia = system: RPMI-8226 leukemia
SK-MEL-28 melanoma = system: SK-MEL-28 melanoma

## O=c1n(-c2ccccc2)c(=O)n2n1C1C=CC2C2C(C1)C2(Cl)Cl (configuration not stated)
786-0 renal
  TGI: > 100 µM
A498 renal
  TGI: > 100 µM
A549 NSCLC
  TGI: > 100 µM
ACHN renal
  TGI: > 100 µM
CAKI-1 renal
  TGI: > 100 µM
CCRF-CEM leukemia
  TGI: > 100 µM
COLO 205 colon
  TGI: > 100 µM
DLD-1 colon
  TGI: > 100 µM
DMS 114 small cell lung
  TGI: > 100 µM
DMS 273 small cell lung
  TGI: > 100 µM
EKVX NSCLC
  TGI: > 100 µM
HCC-2998 colon
  TGI: > 100 µM
HCT-116 colon
  TGI: > 100 µM
HCT-15 colon
  TGI: > 100 µM
HL-60(TB) leukemia
  TGI: > 100 µM
HOP-62 NSCLC
  TGI: > 100 µM
IGROV1 ovarian
  TGI: > 100 µM
K-562 leukemia
  TGI: > 100 µM
KM12 colon
  TGI: > 100 µM
KM20L2 colon
  TGI: > 100 µM
LOX IMVI melanoma
  TGI: > 100 µM
LXFL 529 NSCLC
  TGI: > 100 µM
M14 melanoma
  TGI: > 100 µM
M19-MEL melanoma
  TGI: > 100 µM
MALME-3M melanoma
  TGI: > 100 µM
MOLT-4 leukemia
  TGI: > 100 µM
NCI-H226 lung
  TGI: > 100 µM
NCI-H460 lung
  TGI: > 100 µM
NCI-H522 lung
  TGI: > 100 µM
OVCAR-3 ovarian
  TGI: > 100 µM
OVCAR-4 ovarian
  TGI: > 100 µM
OVCAR-5 ovarian
  TGI: > 100 µM
OVCAR-8 ovarian
  TGI: > 100 µM
RXF 393 renal
  TGI: > 100 µM
RXF-631 renal
  TGI: > 100 µM
SF-268 CNS
  TGI: > 100 µM
SF-295 CNS
  TGI: > 100 µM
SF-539 CNS
  TGI: > 100 µM
SK-MEL-2 melanoma
  TGI: > 100 µM
SK-MEL-5 melanoma
  TGI: > 100 µM
SK-OV-3 ovarian
  TGI: > 100 µM
SN12C renal
  TGI: > 100 µM
SNB-19 CNS
  TGI: > 100 µM
SNB-75 CNS
  TGI: > 100 µM
SNB-78 CNS
  TGI: > 100 µM
SR leukemia
  TGI: > 100 µM
SW-620 colon
  TGI: > 100 µM
TK-10 renal
  TGI: > 100 µM
U251 CNS
  TGI: > 100 µM
UACC-257 melanoma
  TGI: > 100 µM
UACC-62 melanoma
  TGI: > 100 µM
UO-31 renal
  TGI: > 100 µM
XF 498 CNS
  TGI: > 100 µM

## COc1ccc2oc(-c3cccnc3)cc(=O)c2c1
786-0 renal
  TGI: > 100 µM
A498 renal
  TGI: > 100 µM
ACHN renal
  TGI: > 100 µM
CAKI-1 renal
  TGI: > 100 µM
CCRF-CEM leukemia
  TGI: > 100 µM
COLO 205 colon
  TGI: > 100 µM
DLD-1 colon
  TGI: > 100 µM
DMS 114 small cell lung
  TGI: > 100 µM
DMS 273 small cell lung
  TGI: > 100 µM
HCC-2998 colon
  TGI: > 100 µM
HCT-116 colon
  TGI: > 100 µM
HL-60(TB) leukemia
  TGI: > 100 µM
HOP-62 NSCLC
  TGI: > 100 µM
HOP-92 NSCLC
  TGI: > 100 µM
HT29 colon
  TGI: > 100 µM
IGROV1 ovarian
  TGI: > 100 µM
K-562 leukemia
  TGI: > 100 µM
KM12 colon
  TGI: > 100 µM
LOX IMVI melanoma
  TGI: > 100 µM
LXFL 529 NSCLC
  TGI: > 100 µM
M14 melanoma
  TGI: > 100 µM
M19-MEL melanoma
  TGI: > 100 µM
MALME-3M melanoma
  TGI: > 100 µM
MOLT-4 leukemia
  TGI: > 100 µM
NCI-H226 lung
  TGI: > 100 µM
NCI-H23 lung
  TGI: > 100 µM
NCI-H460 lung
  TGI: > 100 µM
OVCAR-3 ovarian
  TGI: > 100 µM
OVCAR-4 ovarian
  TGI: > 100 µM
RPMI-8226 leukemia
  TGI: > 100 µM
RXF 393 renal
  TGI: > 100 µM
RXF-631 renal
  TGI: > 100 µM
SF-268 CNS
  TGI: > 100 µM
SF-295 CNS
  TGI: > 100 µM
SK-MEL-2 melanoma
  TGI: > 100 µM
SK-MEL-28 melanoma
  TGI: > 100 µM
SN12C renal
  TGI: > 100 µM
SNB-19 CNS
  TGI: > 100 µM
SNB-75 CNS
  TGI: > 100 µM
U251 CNS
  TGI: > 100 µM
UACC-257 melanoma
  TGI: > 100 µM
UACC-62 melanoma
  TGI: > 100 µM
UO-31 renal
  TGI: 69.2 µM
XF 498 CNS
  TGI: > 100 µM
